Source: patent publication US11882846B2, “Use of kefir peptide for improving or treating depressive behaviors and related diseases” (National Chung Hsing University, priority 2021, dated 2024)
Counter-ions that a name gives are not always drawn.

What was measured:
CD-1 mice [1] = test: Open field test (OFT); format: in vivo; conditions: 8th day of rearing, 30 minutes after oral treatment, 5 minutes in open field; compared with first group (distilled water)
Method: (§1) Take 5-week-old CD-1 mice, provide standard laboratory animal feed (Altromin, Germany) and distilled water (dH2O), and keep them for 12 hours at 22-24° C. for light/dark cycles. Before starting the test, each group of mice are raised in an experimental animal room for 1 week to adapt to the environment, and then the mice are randomly divided into 4 groups, and the mice in each of the groups are treated and raised for 8 days (referred to as the first day of rearing to the eighth day of rearing) according to the following conditions: • the first group: take distilled water orally; • the second group: take 150 mg/kg milk powder orally; • the third group: take 150 mg/kg kefir fermentation product orally; and • the fourth group: take 10 mg/kg drug trazodone hydrochloride orally.
The mice in each of the groups in Example 2 are treated according to the above conditions for 30 minutes on the 8th day of rearing, and then an open field test is carried out. Specifically, the mice in each of the groups are first placed in an open field (45×45×40 cm) for 5 minutes, their travel paths and travel speeds are observed respectively, and the time it takes to reach the centers and the time spent at a fixed position are calculated.

Erk1/2 = Erk1/2 and p-Erk1/2 protein in hippocampal tissues, western blot; format: in vivo, mice; conditions: oral treatment for 8 days, compared with first group (distilled water)
Method: as §1
(§2) After the test, the mice in each of the groups are anesthetized and their hippocampal tissues are isolated, and frozen and preserved for use in subsequent examples.
(§3) Expressions of protein and mRNA in the hippocampal tissues of the mice in each of the groups in Example 2 are assessed by quantitative RT-PCR method and western blot analysis, and the results are shown in FIG. 6 and FIG. 7, respectively.

CD-1 mice [2] = test: Elevated plus maze test (EPMT); format: in vivo; conditions: 7th day of rearing, 6 hours after oral treatment, 5 minutes observed; compared with first group (distilled water); 150 mg/kg milk powder or kefir fermentation product, 10 mg/kg trazodone hydrochloride
Method: as §1
The mice in each of the groups of Example 1 are treated for 6 hours according to the above conditions on the 7th day of rearing, and then an elevated plus maze test is performed, and paths of the mice in each of the groups within 5 minutes are observed with a camera. The results are shown in FIGS. 2A to 2D, and the time of the mice in each of the groups spent on open arms or closed arms in the elevated plus maze is analyzed, and the results are shown in FIG. 2E to FIG. 2H.

TrkB = TrkB and p-TrkB protein in hippocampal tissues, western blot; format: in vivo, mice; conditions: oral treatment for 8 days, compared with first group (distilled water)
Method: as §1, §2, §3

[3] = tested on: BDNF (brain-derived neurotrophic factor); test: BDNF mRNA expression in hippocampal tissues, quantitative RT-PCR; format: in vivo, mice; conditions: oral treatment for 8 days; compared with first group (distilled water)
Method: as §1, §2, §3

CD-1 mice [4] = test: Forced swimming test (FST); format: in vivo; conditions: 7th day of rearing, 30 minutes after oral treatment, testing time 6 minutes; kefir fermentation product 150 mg/kg, trazodone hydrochloride 10 mg/kg; average±standard deviation
Method: as §1
The mice in each of the groups of Example 2 are treated for 30 minutes according to the above conditions on the 7th day of rearing, and then a swimming test is carried out, testing time is 6 minutes. Movement and immobility time are measured and analyzed with a camera. The results are shown in FIG. 4, wherein the immobility time is a period of time without active movement but only floating in the water; the movement time is a period of time with active movement or circular movement.

CD-1 mice [5] = test: Tail suspension test (TST); format: in vivo; conditions: 7th day, 30 minutes after oral treatment, 6 minute test, measured in the last 4 minutes; kefir fermentation product 150 mg/kg, peptides 10 mg/kg; average±standard deviation
Method: Refer to the steps of Example 2, the CD-1 mice are randomly divided into five groups and raised under the following conditions: • the first group: take distilled water orally; • the second group: take 150 mg/kg kefir fermentation product orally; • the third group: take the peptide 1 (10 mg/kg) disclosed in Example 1 orally, and the amino acid sequence is SEQ ID No: 1; • the fourth group: take the peptide 2 (10 mg/kg) disclosed in Example 1 orally, and the amino acid sequence is SEQ ID No: 2; and • the fifth group 5: take the peptide 3 (10 mg/kg) disclosed in Example 1 orally, and the amino acid sequence is SEQ ID No: 3.
When the mice in each of the groups are raised to the 7th day, after 30 minutes of treatment according to the following conditions, a tail suspension test is carried out for 6 minutes, and the immobility time is measured in the last 4 minutes. The results are shown in FIG. 5, wherein the immobility time refers to a period of time in which the mice are suspended and completely still.

Compound | movement distance in an open field (CD-1 mice [1]) | movement speed in an open field (CD-1 mice [1]) | time spent at a fixed position in an open field (CD-1 mice [1]) | expression level of total Erk1/2 protein in hippocampal tissues (Erk1/2) | phosphorylation status p-Erk1/2/Erk1/2 in hippocampal tissues (Erk1/2; P<0.05) | paths of the mice in the elevated plus maze (movement to the open arms) (CD-1 mice [2]) | expression level of total TrkB protein in hippocampal tissues (TrkB) | phosphorylation status p-TrkB/TrkB in hippocampal tissues (TrkB; P<0.05) | expression of BDNF mRNA in hippocampal tissues [3] | immobility time in swimming test (CD-1 mice [4]) [min] | movement time in swimming test (CD-1 mice [4]) [min] | immobility time in tail suspension test (CD-1 mice [5]) [min] | movement time in tail suspension test (CD-1 mice [5]) [min]
O=c1n(CCCN2CCN(c3cccc(Cl)c3)CC2)nc2ccccn12 [trazodone hydrochloride] | move a longer distance | move faster | spend less time at a certain fixed position | have not change significantly | increases significantly | move to the open arms | have not change significantly | increases significantly | significantly improved | 0.9 ± 0.2 | 3.1 ± 0.3 | – | –
peptide 2: YQEPVLGPVRGPFPI, SEQ ID No: 2; the kefir peptide of the invention, isolated from kefir fermentation product (artificiall obtained) | – | – | – | – | – | – | – | – | – | – | – | 1.0 ± 0.2 | 3.0 ± 0.2
peptide 3: KLHLPLPLVQSWM, SEQ ID No: 3; peptide isolated from kefir fermentation product, can also be chemically synthesized (artificiall obtained) | – | – | – | – | – | – | – | – | – | – | – | 1.8 ± 0.3 | 2.2 ± 0.3
